{"source": "patent US11582969B2", "about": "“Non-nematicidal composition and use thereof” (BioAtlantis Limited, priority 2013, dated 2023)", "key": {"[1]": {"test_system": "potatoes grown in plots infested with Globodera pallida", "test": "Field trial 2013: potato yield with isolated bioactives in plots infested with Globodera pallida", "type": "in vivo, Solanum tuberosum", "conditions": "2013, average yield per drill (2.59 m^2)", "from_the_text": "Differences in efficacy achieved with Composition 1 and Composition 2 in field trials between 2008-2012 pointed to a differential effect of bioactive levels within the two compositions (Example 1). Laboratory trials on grass species grown in the presence of Meloidogyne minor identified fucan (fucoidan) as one of the bioactives responsible for enhancing growth (Example 2). Despite lower levels of fucoidan, Composition 1 also achieved equivalent increases in root growth in the same trial as compared with the purified fucoidan. […] A field trial was undertaken in 2013 to further determine which bioactives or combinations of bioactives are responsible for conferring enhancements in total and marketable yield in nematode infested growth media. As in previous trials, the forms of glucan and fucan used were laminarin and fucoidan respectively.\nBioactives were isolated and stock solutions prepared to contain glucan alone, mannitol alone, glucan+mannitol, fucan+mannitol and glucan+fucan. The efficacy of the bioactive fractions were assessed in plots known to be infested with Globodera pallida. Treatments were fully randomized with plots of approximately 16 m^2 in area and 6 drills wide. Twelve tubers were planted per drill. One metre spacing was placed between blocks with two drills fallow between treatments. The dimensions of the drills were 0.7 meters wide and 3.7 meters in length. The cultivar Navan, (Solanum tuberosum L. ev. Navan) was planted and compositions applied by foliar spray at 50% post-emergence and at approximately seven day intervals thereafter. Foliar spray ceased once senescence was noticed. For each of the 5 treatments, a total of 621 g of bioactives was applied per Ha. A nematicidal treatment, Vydate, was applied at full rate as a separate treatment. Standard compound fertilizers and fungicides were applied at recommended rates and intervals. The crop was harvested in November. Total harvest weight and marketable yield (>35 mm category) was measured, with comparisons between bioactive treatments and nematicide made by means of One-Way ANOVA."}, "Creeping bentgrass": {"test_system": "Creeping bentgrass", "test": "Pre-soaking seeds: early root growth", "type": "in vivo", "conditions": "seeds pre-soaked 16 hours, 7 day period, n = 10", "experimental": "(§1) The effects of Composition 1 and fucoidan on Creeping bentgrass and Perennial ryegrass root growth were examined in the laboratory setting in the presence or absence of plant parasitic nematodes in 2010. Seeds were pre-soaked in test materials for 16 hours each and left to germinate on wet USGA sand at 16° C. Roots were analysed using WinRHIZO image analysis system, following a 7 day period to assess mean root length following applications (n=10 seedlings per treatment). Experiments were also undertaken to assess the efficacy of Composition 1 and fucoidan in enhancing root length in the presence or absence of plant pathogenic nematodes. Seedlings (×7 replication) were established in sand columns containing USGA specification sand and sprayed on a weekly basis with either Composition 1 or fucoidan. […] Fucoidan was applied at a rate equivalent to 600 g/Ha. Root knot nematodes of the species Meloidogyne minor were inoculated around the roots in week 1, as second stage juveniles. Roots were analysed using WinRHIZO image analysis system following a 25 days period."}, "Perennial ryegrass": {"test_system": "Perennial ryegrass", "test": "Pre-soaking seeds: early root growth", "type": "in vivo", "conditions": "seeds pre-soaked 16 hours, 7 day period", "experimental": "as §1"}, "[2]": {"test_system": "Creeping bentgrass, with or without Meloidogyne minor", "test": "Seedling root length in sand columns with or without Meloidogyne minor", "type": "in vivo", "conditions": "weekly spray, 25 days, n = 7", "experimental": "as §1"}, "[3]": {"test_system": "Perennial ryegrass, with or without Meloidogyne minor", "test": "Seedling root length in sand columns with or without Meloidogyne minor", "type": "in vivo", "conditions": "weekly spray, 25 days, n = 7", "experimental": "as §1"}, "[4]": {"conditions": "inoculation with Meloidogyne minor"}, "[5]": {"conditions": "no inoculation with Meloidogyne minor"}}, "note": "Marks after values point to notes of the source that are not given here."}
{"compound": "OC[C@@H](O)[C@@H](O)[C@H](O)[C@H](O)CO", "note": "[Mannitol-alone, mannitol]", "values": [{"measurement": "Total Weight (g)", "setting": "[1]", "result": "9652** g"}, {"measurement": "Marketable weight (g)", "setting": "[1]; >35 mm", "result": "9324* g"}, {"measurement": "Marketable weight", "setting": "[1]; >35 mm, listed as mannitol-alone", "result": 9324, "unit": "g"}, {"measurement": "Total Weight", "setting": "[1]; listed as mannitol-alone", "result": 9652, "unit": "g"}]}
{"compound": "fucoidan", "values": [{"measurement": "Mean Root length (mm)", "setting": "Creeping bentgrass", "result": "39.1 ^a mm"}, {"measurement": "Mean Root length (mm)", "setting": "Perennial ryegrass; n = 10", "result": "48.9 ^b mm"}, {"measurement": "Mean Root length (mm)", "setting": "Perennial ryegrass; n = 10, listed as fucoidan", "result": 48.9, "unit": "mm"}, {"measurement": "mean root length (mm), +Mm", "setting": "[2]; [4]", "result": "20.2^b mm"}, {"measurement": "mean root length (mm), −Mm", "setting": "[2]; [5]", "result": "27.1^b mm"}, {"measurement": "mean root length (mm), +Mm", "setting": "[3]; [4]", "result": "102.2^b mm"}, {"measurement": "mean root length (mm), −Mm", "setting": "[3]; [5]", "result": "129.2^c mm"}]}
{"compound": "laminarin [Glucan-alone]", "values": [{"measurement": "Total Weight", "setting": "[1]", "result": 10524, "unit": "g"}, {"measurement": "Marketable weight", "setting": "[1]; >35 mm", "result": 10218, "unit": "g"}]}
